Data: patent US10035790B2, “RORγ modulators” (BRISTOL-MYERS SQUIBB COMPANY, priority 2012, dated 2018)
pIC50: −log10 of the molar value.

Biological target: T1, ligand binding domain of human RORγ (A262-S507) (Homo sapiens, UniProt P51449)
T1 construct: made in house; host or cells: E. coli
T1 sequence (P51449 262-507): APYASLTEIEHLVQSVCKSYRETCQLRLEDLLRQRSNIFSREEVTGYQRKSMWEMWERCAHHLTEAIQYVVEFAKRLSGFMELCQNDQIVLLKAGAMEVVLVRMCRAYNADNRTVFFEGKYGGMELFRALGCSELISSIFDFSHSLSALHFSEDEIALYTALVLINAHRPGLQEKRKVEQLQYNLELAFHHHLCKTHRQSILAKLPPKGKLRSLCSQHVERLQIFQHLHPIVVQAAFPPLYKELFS
Test: General RORγ SPA binding assay (competition with [3H]25-hydroxycholesterol)
Details: RORγ SPA binding assay, inhibition of [3H]25-hydroxycholesterol binding; read-out: IC50
Procedure, shortened: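 Step one: compound meets 50 nM nickel-purified, His-tagged protein from E. coli for 15 min at room temperature (PBS, 0.5% fatty acid free BSA). Step two: radioligand is added for another 15 min. Step three: SPA beads are added for 30 min before scintillation reading and IC50 fitting.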

Structure (SMILES) | pIC50
CCC/C(=N/Oc1cccc(C(F)(F)F)c1)c1c(C)nc(C)nc1C1CCN(C(=O)Cc2c(F)cccc2F)CC1 [Compound B49, (1Z)-1-(4-{1-[(2,6-difluorophenyl)acetyl]piperidin-4-yl}-2,6-dimethylpyrimidin-5-yl)butan-1-one O-[3-(trifluoromethyl)phenyl]oxime] | 5.71
Cc1cc(C)cc(CNC(=O)c2cnc(C)nc2C2(F)CCN(C(=O)Cc3c(F)cccc3F)CC2)c1 [Compound A105, 4-(1-(2-(2,6-difluorophenyl)acetyl)-4-fluoropiperidin-4-yl)-N-(3,5-dimethylbenzyl)-2-methylpyrimidine-5-carboxamide] | 6.26
Cc1ncc(C(F)(F)COc2cccc(C(F)(F)F)n2)c(C2CCN(C(=O)Nc3c(F)cccc3F)CC2)n1 [Compound N14, N-(2,6-Difluorophenyl)-4-[5-(1,1-difluoro-2-{[6-(trifluoromethyl)pyridin-2-yl]oxy}ethyl)-2-methylpyrimidin-4-yl]piperidine-1-carboxamide] | 8.39
Cc1nc(N)nc(C2CCN(C(=O)Nc3c(F)cccc3F)CC2)c1C(=O)COc1ccnc(C(F)(F)F)n1 [Compound M10, 4-[2-Amino-6-methyl-5-({[2-(trifluoromethyl)pyrimidin-4-yl]oxy}acetyl)pyrimidin-4-yl]-N-(2,6-difluorophenyl)piperidine-1-carboxamide] | 8.28
CC(=O)Nc1nc(C)c(C(=O)COc2cccc(C(F)(F)F)n2)c(C2CCN(C(=O)Nc3c(F)cccc3F)CC2)n1 [Compound M12, 4-[2-(Acetylamino)-6-methyl-5-({[6-(trifluoromethyl)pyridin-2-yl]oxy}acetyl)pyrimidin-4-yl]-N-(2,6-difluorophenyl)piperidine-1-carboxamide] | 8.21
Cc1nc(C)c(-c2nc(-c3cccc(C(F)(F)F)c3)no2)c(C2CCN(C(=O)c3c(F)cccc3F)CC2)n1 [Compound C65, 4-{1-[(2,6-Difluorophenyl)carbonyl]piperidin-4-yl}-2,6-dimethyl-5-{3-[3-(trifluoromethyl)phenyl]-1,2,4-oxadiazol-5-yl}pyrimidine] | 5.56
Cc1nc(N)nc(C2CCN(C(=O)Nc3c(F)cccc3F)CC2)c1-c1ncc(-c2ccnc(C(F)(F)F)n2)o1 [Compound C69, 4-(2-amino-6-methyl-5-{5-[2-(trifluoromethyl)pyrimidin-4-yl]-1,3-oxazol-2-yl}pyrimidin-4-yl)-N-(2,6-difluorophenyl)piperidine-1-carboxamide] | 7.51
O=C(NCc1ccc(Cl)c(Cl)c1)c1cncnc1C1CCN(C(=O)Cc2c(F)ccc(F)c2F)CC1 [Compound A68, N-(3,4-dichlorobenzyl)-4-(1-(2-(2,3,6-trifluorophenyl)acetyl)piperidin-4-yl)pyrimidine-5-carboxamide] | 7.02
Cc1nc(N)nc(C2CCN(C(=O)Nc3c(F)cccc3F)CC2)c1C(O)COc1ccnc(C(F)(F)F)n1 (stereo not drawn) [Compound N7, 4-[2-amino-5-(1-hydroxy-2-{[2-(trifluoromethyl)pyrimidin-4-yl]oxy}ethyl)-6-methylpyrimidin-4-yl]-N-(2,6-difluorophenyl)piperidine-1-carboxamide] | 7.77
C/C(=N/Oc1ccnc(C(F)(F)F)c1)c1c(C)nc(C)nc1C1CCN(C(=O)Cc2c(F)cccc2F)CC1 [Compound B2, (1Z)-1-(4-{1-[(2,6-Difluorophenyl)acetyl]piperidin-4-yl}-2,6-dimethylpyrimidin-5-yl)ethanone 0-[2-(trifluoromethyl)pyridin-4-yl]oxime] | 6.35
Cc1nc(C)c(C(O)COc2ccnc(C(F)(F)F)n2)c(C2CCN(C(=O)Nc3c(F)cccc3F)CC2)n1 (stereo not drawn) [Compound N5, N-(2,6-Difluorophenyl)-4-[5-(1-hydroxy-2-{[2-(trifluoromethyl)pyrimidin-4-yl]oxy}ethyl)-2,6-dimethylpyrimidin-4-yl]piperidine-1-carboxamide] | 8.08
Cc1cc(C)cc(COC(C)(CO)c2cnc(C)nc2C2CCN(C(=O)Cc3c(F)cccc3F)CC2)c1 (stereo not drawn) [Compound E4, 2-(2,6-difluorophenyl)-1-(4-(5-(2-((3,5-dimethylbenzyl)oxy)-1-hydroxypropan-2-yl)-2-methylpyrimidin-4-yl)piperidin-1-yl)ethanone] | 7.78
Cc1nc(C)c(C(=O)NCc2ccnc(C(F)(F)F)n2)c(C2CCN(C(=O)Cc3c(F)cccc3F)CC2)n1 [Compound A121, 4-{1-[(2,6-Difluorophenyl)acetyl]piperidin-4-yl}-2,6-dimethyl-N-{[2-(trifluoromethyl)pyrimidin-4-yl]methyl}pyrimidine-5-carboxamide] | 7.23
Nc1ncc(C(=O)COc2ccnc(C(F)(F)F)n2)c(C2CCN(C(=O)Cc3c(F)cccc3F)CC2)n1 [Compound M5, 1-(2-Amino-4-{1-[(2,6-difluorophenyl)acetyl]piperidin-4-yl}pyrimidin-5-yl)-2-{[2-(trifluoromethyl)pyrimidin-4-yl]oxy}ethanone] | 7.79
CC(=O)N1CCN(CC(O)(COc2cccc(C(F)(F)F)n2)c2cnc(C)nc2C2CCN(C(=O)Nc3c(F)cccc3F)CC2)CC1 (stereo not drawn) [Compound N39, 4-{5-[2-(4-Acetylpiperazin-1-yl)-1-hydroxy-1-({[6-(trifluoromethyl)pyridin-2-yl]oxy}methyl)ethyl]-2-methylpyrimidin-4-yl}-N-(2,6-difluorophenyl)piperidine-1-carboxamide] | 7.08

Continued, values first:

pIC50 | Structure (SMILES)
7.32 | Cc1ncc(C(C)(O)CNc2nccc(C(F)(F)F)n2)c(C2CCN(C(=O)Nc3c(F)cccc3F)CC2)n1 (stereo not drawn) [Compound D21, N-(2,6-Difluorophenyl)-4-[5-(1-hydroxy-1-methyl-2-{[4-(trifluoromethyl)pyrimidin-2-yl]amino}ethyl)-2-methylpyrimidin-4-yl]piperidine-1-carboxamide]
8.31 | Cc1ncc(C2(COc3cccc(C(F)(F)F)n3)CCO2)c(C2CCN(C(=O)Nc3c(F)cccc3F)CC2)n1 (stereo not drawn) [Compound N51, N-(2,6-Difluorophenyl)-4-{2-methyl-5-[2-({[6-(trifluoromethyl)pyridin-2-yl]oxy}methyl)oxetan-2-yl]pyrimidin-4-yl}piperidine-1-carboxamide]
5.64 | CCn1c(C)nc(C2CCN(C(=O)Cc3c(F)cccc3F)CC2)c(C(=O)NCc2cccc(C(F)(F)F)n2)c1=O [Compound I8, 4-(1-(2-(2,6-Difluorophenyl)acetyl)piperidin-4-yl)-1-ethyl-2-methyl-6-oxo-N-((6-(trifluoromethyl)pyridin-2-yl)methyl)-1,6-dihydropyrimidine-5-carboxamide]
8.09 | CCc1ncc(C(=O)NNc2cccc(Cl)c2)c(C2CCN(C(=O)Cc3c(F)cccc3F)CC2)n1 [Compound G3, N′-(3-chlorophenyl)-4-(1-(2-(2,6-difluorophenyl)acetyl)piperidin-4-yl)-2-ethylpyrimidine-5-carbohydrazide]
7.89 | Cc1ncc(C(O)(CN)COc2cccc(C(F)(F)F)n2)c(C2CCN(C(=O)Nc3c(F)cccc3F)CC2)n1 (stereo not drawn) [Compound N34, 4-{5-[2-Amino-1-hydroxy-1-({[6-(trifluoromethyl)pyridin-2-yl]oxy}methyl)ethyl]-2-methylpyrimidin-4-yl}-N-(2,6-difluorophenyl)piperidine-1-carboxamide]
5.28 | Cc1cnc(CNC(=O)c2cnc(C)nc2C2CCN(C(=O)Cc3c(F)cccc3F)CC2)cn1 [Compound A79, 4-(1-(2-(2,6-difluorophenyl)acetyl)piperidin-4-yl)-2-methyl-N-((5-methylpyrazin-2-yl)methyl) pyrimidine-5-carboxamide]
8.18 | Cc1ncc(C(O)COc2cccc(C(F)(F)F)n2)c(C2CCN(C(=O)Nc3c(F)cccc3F)CC2)n1 (stereo not drawn) [Compound N1, N-(2,6-Difluorophenyl)-4-[5-(1-hydroxy-2-{[6-(trifluoromethyl)pyridin-2-yl]oxy}ethyl)-2-methylpyrimidin-4-yl]piperidine-1-carboxamide]
8.15 | Cc1ncc(C(F)COc2cccc(C(F)(F)F)n2)c(C2CCN(C(=O)Nc3c(F)cccc3F)CC2)n1 (stereo not drawn) [Compound N22, N-(2,6-Difluorophenyl)-4-[5-(1-fluoro-2-{[6-(trifluoromethyl)pyridin-2-yl]oxy}ethyl)-2-methylpyrimidin-4-yl]piperidine-1-carboxamide]
6.49 | Cc1ncc(C(=O)NOc2cccc(C(F)(F)F)c2)c(C2CCN(C(=O)Cc3c(F)cccc3F)CC2)n1 [Compound H1, 4-{1-[(2,6-Difluorophenyl)acetyl]piperidin-4-yl}-2-methyl-N-{[3-(trifluoromethyl)-phenyl]oxy}pyrimidine-5-carboxamide]
6.46 | Nc1ncc(C(=O)COc2ccnc(C(F)(F)F)n2)c(C2CCN(C(=O)c3c(F)cccc3F)CC2)n1 [Compound M13, 1-(2-Amino-4-{1-[(2,6-difluorophenyl)carbonyl]piperidin-4-yl}pyrimidin-5-yl)-2-{[2-(trifluoromethyl)pyrimidin-4-yl]oxy}ethanone]
7.87 | C/C(=N\Oc1cccc(C(F)(F)F)c1)c1cnc(C)nc1C1CCN(C(=O)Nc2c(F)cccc2F)CC1 [Compound B43, N-(2,6-Difluorophenyl)-4-{2-methyl-5-[(1E)-N-{[3-(trifluoromethyl)phenyl]oxy}ethanimidoyl]pyrimidin-4-yl}piperidine-1-carboxamide]
8.21 | Cc1ncc(C(C)(O)COc2cccc(Cl)c2)c(C2CCN(C(=O)Cc3c(F)cccc3F)CC2)n1 (stereo not drawn) [Compound D12, 1-(4-(5-(1-(3-chlorophenoxy)-2-hydroxypropan-2-yl)-2-methylpyrimidin-4-yl)piperidin-1-yl)-2-(2,6-difluorophenyl)ethanone]
